Test system: Metabolism protein genes
Test: DNA chip mRNA expression in yeast, metabolism protein genes (Table 7)
Assay type: cell-based, Saccharomyces cerevisiae S288C
Procedure: Yeast (Saccharomyces cerevisiae S288C (α SUC2mal mel gap2 CUP1)) were incubated at 25° C. on YPD medium (yeast extract 1%, polypepton 2%, glucose 2%). One of toxic chemical substances was added to the cells at logarithmic growth phase, and the cells were further incubated for two hours. Cells were cultured without any chemical substance in the same condition, and were used as control. Concentrations of the chemical substances were defined to inhibit the growth of the yeast but not lead to death.
After completion of the incubation, the culture was centrifuged to collect the cells. To the cells, sodium acetate buffer (50 mM sodium acetate, 10 mM EDTA, 1% SDS) was added, and the mixture was shaken at 65° C. for five minutes, followed by returning to room temperature, and obtaining the supernatant, of which the procedures were repeated two times. To the supernatant, ½ amount of a solution of phenol/chloroform was added, and the mixture was centrifuged to give a supernatant, which was added with an equal amount of chloroform, and the mixture was centrifuged to give a supernatant. To the supernatant, an equal amount of isopropanol containing 0.3 M sodium acetate was added, and the mixture was allowed to stand at room temperature for 30 minutes, after which the mixture was centrifuged to give a sediment of the whole RNAs. Seventy % ethanol was added to the sediment, and the mixture was again centrifuged to give a sediment, which was then dried and dissolved in water. mRNA was isolated from the whole RNAs as followings. In view of the fact that a poly A chain is attached to the 3′ terminus of mRNA, a polynucleotide having a poly T structure which was immobilized on the surface of latex beads was used to trap the mRNA, and then the mRNA was washed and eluted with spine column (Oligotex-dT30<Super>mRNA Purification Kit, Takara). Reverse transcription of the mRNA was conducted with a reverse transcriptase (Super Script II Reverse Transcriptase; catalogue No. 18064-014, GibcoBRL) using fluorescence-labeled nucleotides to give cDNAs that were introduced with Cy3-dUTP or Cy5-dUTP during the reverse transcription.
The labeled cDNAs were dissolved in TE buffer (10mM Tris-HCl/1 mM EDTA, pH8.0), and the solution was dropped on the DNA chip containing the whole genes of yeast (DNA Chip Research Inc. Japan) so that the cDNAs were hybridized on the DNA chip at 65° C. for over 12 hours. The fluoresces intensity of the DNA chip was read with a scanner, and the ratio relative to the fluorescence intensity resulting from the absence of chemical substance was estimated as the following, which is shown in Tables 1 to 9: […]

Compound: Cl[C@H]1[C@H](Cl)[C@@H](Cl)[C@@H](Cl)[C@H](Cl)[C@H]1Cl [(7), γ-hexachlorocyclohexane]
- The level of expressed mRNA in the presence of chemical substance/The level of expressed mRNA in the absence of chemical substance (yeast gene YKL035W): 0.6
- level of expressed mRNA in the presence/in the absence of chemical substance (yeast gene YKL060C): 1.2
- The level of expressed mRNA in the presence of chemical substance/The level of expressed mRNA in the absence of chemical substance (yeast gene YKL091C): 1.9
- The level of expressed mRNA in the presence of chemical substance/The level of expressed mRNA in the absence of chemical substance (yeast gene YKL104C): 2.3
- level of expressed mRNA in the presence/in the absence of chemical substance (yeast gene YKL148C): 0.6
- The level of expressed mRNA in the presence of chemical substance/The level of expressed mRNA in the absence of chemical substance (yeast gene YKL152C): 1.5
- level of expressed mRNA in the presence/in the absence of chemical substance (yeast gene YKL157W): 1.9
- The level of expressed mRNA in the presence of chemical substance/The level of expressed mRNA in the absence of chemical substance (yeast gene YKL213C): 1.0
- The level of expressed mRNA in the presence of chemical substance/The level of expressed mRNA in the absence of chemical substance (yeast gene YKL215C): 1.1
- level of expressed mRNA in the presence/in the absence of chemical substance (yeast gene YKR034W): 0.7
- The level of expressed mRNA in the presence of chemical substance/The level of expressed mRNA in the absence of chemical substance (yeast gene YKR039W): 1.0
- The level of expressed mRNA in the presence of chemical substance/The level of expressed mRNA in the absence of chemical substance (yeast gene YLL058W): 1.5
- level of expressed mRNA in the presence/in the absence of chemical substance (yeast gene YLR006C): 1.1
- level of expressed mRNA in the presence/in the absence of chemical substance (yeast gene YLR044C): 1.3
- level of expressed mRNA in the presence/in the absence of chemical substance (yeast gene YLR056W): 0.8
- level of expressed mRNA in the presence/in the absence of chemical substance (yeast gene YLR058C): 0.5
- level of expressed mRNA in the presence/in the absence of chemical substance (yeast gene YLR081W): 0.7
- level of expressed mRNA in the presence/in the absence of chemical substance (yeast gene YLR089C): 1.6
- The level of expressed mRNA in the presence of chemical substance/The level of expressed mRNA in the absence of chemical substance (yeast gene YLR180W): 0.6
- The level of expressed mRNA in the presence of chemical substance/The level of expressed mRNA in the absence of chemical substance (yeast gene YLR273C): 1.2
- level of expressed mRNA in the presence/in the absence of chemical substance (yeast gene YLR284C): 0.8
- The level of expressed mRNA in the presence of chemical substance/The level of expressed mRNA in the absence of chemical substance (yeast gene YLR299W): 0.8
- The level of expressed mRNA in the presence of chemical substance/The level of expressed mRNA in the absence of chemical substance (yeast gene YLR300W): 0.5
- level of expressed mRNA in the presence/in the absence of chemical substance (yeast gene YLR304C): 0.6
- The level of expressed mRNA in the presence of chemical substance/The level of expressed mRNA in the absence of chemical substance (yeast gene YLR307W): 1.5
- The level of expressed mRNA in the presence of chemical substance/The level of expressed mRNA in the absence of chemical substance (yeast gene YLR348C): 0.9
- level of expressed mRNA in the presence/in the absence of chemical substance (yeast gene YLR354C): 1.1
- level of expressed mRNA in the presence/in the absence of chemical substance (yeast gene YLR372W): 0.2
- level of expressed mRNA in the presence/in the absence of chemical substance (yeast gene YML022W): 0.6
- The level of expressed mRNA in the presence of chemical substance/The level of expressed mRNA in the absence of chemical substance (yeast gene YML054C): 1.2
- The level of expressed mRNA in the presence of chemical substance/The level of expressed mRNA in the absence of chemical substance (yeast gene YML070W): 3.1
- The level of expressed mRNA in the presence of chemical substance/The level of expressed mRNA in the absence of chemical substance (yeast gene YML100W): 2.2
- The level of expressed mRNA in the presence of chemical substance/The level of expressed mRNA in the absence of chemical substance (yeast gene YMR008C): 0.9
- level of expressed mRNA in the presence/in the absence of chemical substance (yeast gene YMR011W): 0.8
- level of expressed mRNA in the presence/in the absence of chemical substance (yeast gene YMR015C): 0.4
- The level of expressed mRNA in the presence of chemical substance/The level of expressed mRNA in the absence of chemical substance (yeast gene YMR020W): 2.7
- level of expressed mRNA in the presence/in the absence of chemical substance (yeast gene YMR083W): 1.7
- The level of expressed mRNA in the presence of chemical substance/The level of expressed mRNA in the absence of chemical substance (yeast gene YMR105C): 2.8
- The level of expressed mRNA in the presence of chemical substance/The level of expressed mRNA in the absence of chemical substance (yeast gene YMR189W): 0.8
- level of expressed mRNA in the presence/in the absence of chemical substance (yeast gene YMR205C): 0.9
- level of expressed mRNA in the presence/in the absence of chemical substance (yeast gene YMR261C): 1.3
- The level of expressed mRNA in the presence of chemical substance/The level of expressed mRNA in the absence of chemical substance (yeast gene YMR271C): 3.4
- The level of expressed mRNA in the presence of chemical substance/The level of expressed mRNA in the absence of chemical substance (yeast gene YMR296C): 0.6
- level of expressed mRNA in the presence/in the absence of chemical substance (yeast gene YMR323W): 1.1
- The level of expressed mRNA in the presence of chemical substance/The level of expressed mRNA in the absence of chemical substance (yeast gene YNL012W): 2.0
- level of expressed mRNA in the presence/in the absence of chemical substance (yeast gene YNL025C): 1.2
- The level of expressed mRNA in the presence of chemical substance/The level of expressed mRNA in the absence of chemical substance (yeast gene YNL045W): 1.8
- The level of expressed mRNA in the presence of chemical substance/The level of expressed mRNA in the absence of chemical substance (yeast gene YNL104C): 0.6
- The level of expressed mRNA in the presence of chemical substance/The level of expressed mRNA in the absence of chemical substance (yeast gene YNL106C): 0.9
- The level of expressed mRNA in the presence of chemical substance/The level of expressed mRNA in the absence of chemical substance (yeast gene YNL169C): 0.7
- level of expressed mRNA in the presence/in the absence of chemical substance (yeast gene YNL192W): 1.0
- The level of expressed mRNA in the presence of chemical substance/The level of expressed mRNA in the absence of chemical substance (yeast gene YNL231C): 2.5
- The level of expressed mRNA in the presence of chemical substance/The level of expressed mRNA in the absence of chemical substance (yeast gene YNL322C): 0.9
- The level of expressed mRNA in the presence of chemical substance/The level of expressed mRNA in the absence of chemical substance (yeast gene YNL331C): 1.9
- The level of expressed mRNA in the presence of chemical substance/The level of expressed mRNA in the absence of chemical substance (yeast gene YNL332W): 2.1
- The level of expressed mRNA in the presence of chemical substance/The level of expressed mRNA in the absence of chemical substance (yeast gene YNR019W): 0.8
- The level of expressed mRNA in the presence of chemical substance/The level of expressed mRNA in the absence of chemical substance (yeast gene YNR033W): 1.2
- The level of expressed mRNA in the presence of chemical substance/The level of expressed mRNA in the absence of chemical substance (yeast gene YNR059W): 1.6
- The level of expressed mRNA in the presence of chemical substance/The level of expressed mRNA in the absence of chemical substance (yeast gene YOL058W): 0.4
- level of expressed mRNA in the presence/in the absence of chemical substance (yeast gene YOL086C): 1.9
- level of expressed mRNA in the presence/in the absence of chemical substance (yeast gene YOL108C): 1.1
- level of expressed mRNA in the presence/in the absence of chemical substance (yeast gene YOL116W): 1.5
- The level of expressed mRNA in the presence of chemical substance/The level of expressed mRNA in the absence of chemical substance (yeast gene YOL126C): 1.4
- The level of expressed mRNA in the presence of chemical substance/The level of expressed mRNA in the absence of chemical substance (yeast gene YOL153C): 3.3
- level of expressed mRNA in the presence/in the absence of chemical substance (yeast gene YOL156W): 1.0
- The level of expressed mRNA in the presence of chemical substance/The level of expressed mRNA in the absence of chemical substance (yeast gene YOL165C): 1.4
- level of expressed mRNA in the presence/in the absence of chemical substance (yeast gene YOR002W): 1.0
- level of expressed mRNA in the presence/in the absence of chemical substance (yeast gene YOR085W): 0.6
- The level of expressed mRNA in the presence of chemical substance/The level of expressed mRNA in the absence of chemical substance (yeast gene YOR099W): 1.0
- level of expressed mRNA in the presence/in the absence of chemical substance (yeast gene YOR103C): 1.2
- level of expressed mRNA in the presence/in the absence of chemical substance (yeast gene YOR108W): 1.2
- level of expressed mRNA in the presence/in the absence of chemical substance (yeast gene YOR128C): 0.7
- The level of expressed mRNA in the presence of chemical substance/The level of expressed mRNA in the absence of chemical substance (yeast gene YOR130C): 1.3
- level of expressed mRNA in the presence/in the absence of chemical substance (yeast gene YOR142W): 1.0
- level of expressed mRNA in the presence/in the absence of chemical substance (yeast gene YOR176W): 0.5
- level of expressed mRNA in the presence/in the absence of chemical substance (yeast gene YOR178C): 0.9
- level of expressed mRNA in the presence/in the absence of chemical substance (yeast gene YOR251C): 1.0
- The level of expressed mRNA in the presence of chemical substance/The level of expressed mRNA in the absence of chemical substance (yeast gene YOR336W): 1.2
- The level of expressed mRNA in the presence of chemical substance/The level of expressed mRNA in the absence of chemical substance (yeast gene YOR347C): 0.9
- level of expressed mRNA in the presence/in the absence of chemical substance (yeast gene YOR348C): 0.8
- The level of expressed mRNA in the presence of chemical substance/The level of expressed mRNA in the absence of chemical substance (yeast gene YPL017C): 1.4
- level of expressed mRNA in the presence/in the absence of chemical substance (yeast gene YPL028W): 1.3
- level of expressed mRNA in the presence/in the absence of chemical substance (yeast gene YPL057C): 0.6
- level of expressed mRNA in the presence/in the absence of chemical substance (yeast gene YPL135W): 1.2
- level of expressed mRNA in the presence/in the absence of chemical substance (yeast gene YPL148C): 1.0
- The level of expressed mRNA in the presence of chemical substance/The level of expressed mRNA in the absence of chemical substance (yeast gene YPR026W): 1.3
- level of expressed mRNA in the presence/in the absence of chemical substance (yeast gene YPR113W): 1.2
- level of expressed mRNA in the presence/in the absence of chemical substance (yeast gene YPR165W): 1.0
- The level of expressed mRNA in the presence of chemical substance/The level of expressed mRNA in the absence of chemical substance (yeast gene YPR167C): 1.2
- level of expressed mRNA in the presence/in the absence of chemical substance (yeast gene YPR183W): 1.2
